Experimental data taken from patent US4910194A, “Thienotriazolodiazepine compounds and pharmaceutical uses thereof” (Yoshitomi Pharmaceutical Industries, Ltd., priority 1988, dated 1990).
Converted amounts (≈) assume the structure as drawn.

Experiments:
PAF = settings: literature; cited from earlier work
PAF-induced lethal shock = experiment: Effect on PAF-induced lethal shock in mice; type: in vivo; settings: Mus musculus; male ICR mice, oral 1 hour before 80 μg/kg PAF i.v., survival over 24 hours; read-out: ED50 (p.o.), PAF-induced lethal shock
Method: The experiment was carried out according to the method of Young et al. described in Prostaglandins, Vol. 30, p. 545 (1985). Groups of 9 to 15 male ICR mice (Charles River) weighing 25-30 g were used. 80 μg/kg of PAF (Serdary Research Lab.) solution was intravenously administered in a lateral tail vein 1 hour after the oral administration of test compound (0.1 ml/10 g). […] The ED50 (mg/kg, p.o.) of the compound of Example 2 was 0.01 mg/kg.

[1] = system: PAF-induced platelet aggregation; experiment: Inhibitory effect on platelet aggregation in rabbits (in vitro test); type: cell-based; settings: Oryctolagus cuniculus, rabbit PRP, PAF 1.8×10^-7 M, 37° C., read-out: Inhibition of PAF-induced platelet aggregation, IC50
Method: Blood samples to which was added 0.1 volume of 3.8% sodium citrate were collected from rabbits. Platelet rich plasma (PRP) was prepared by centrifuging the blood sample at 200×g for 10 minutes, and platelet poor plasma (PPP) was prepared by centrifuging the remaining blood sample at 1000×g for 10 minutes.
Aggregation ability was measured with a turbidimetric device (6-channel NKK Hematracer 1, model PAT-6A) according to the method of G. V. R. Born described in J. Physiology, vol. 168, p. 178 (1963). The aggregometer was adjusted in sensitivity to give light transmission values of 0 and 100% for PRP and PPP, respectively. With stirring at 1000 rpm, 0.3 μl of test compound solution or vehicle was added to 0.3 ml of PRP. After the mixture was kept at 37° C. for 2 minutes, to the mixture was added 3 μl PAF (Serdary Research Lab.) at the final concentration of 1.8×10^-7 M and the light transmission was recorded for 5 minutes.
In all experiments, PAF was dissolved in ethanol at the concentration of 100 μg/ml, and, when used, diluted with 0.9% saline solution.
The inhibition percentage of test compounds on platelet aggregation were calculated from the following formula by measuring the maximal light transmission in the presence and absence of the test compounds. [formula]
IC50 (μg/ml, concentration of 50% inhibition) was graphically determined.

[2] = system: PAF-induced platelet aggregation; experiment: Inhibitory effect on platelet aggregation in rabbits (ex vivo test); settings: Oryctolagus cuniculus, po, rabbit, 1 mg/kg orally, 24 hours, read-out: percentage of inhibition of platelet aggregation at 24 hours after oral administration
Method: Test compound (1 mg/kg) was orally administered to rabbit instead of adding it to PRP as in vitro test of Experiment 1, and then the citrated blood samples (9 volumes of blood+1 volume of 3.8% sodium citrate) were collected with the passage of time. Then, the blood samples were employed to determine the inhibitory effect on platelet aggregation according to Experiment 1. The percentage of inhibition at 24 hours after the oral administration of the compound of Example 2 was 100%.

SMILES | IC50 [1] | further results
Cc1nnc2n1-c1sc(CCC(=O)N3CCOCC3)cc1C(c1ccccc1Cl)=NC2 [4-(2-chlorophenyl)-9-methyl-6H-thieno-[3,2-f][1,2,4]triazolo[4,3-a][1,4]diazepine-2-propionic acid morpholide] | – | antagonistic activity on PAF (PAF): exhibit antagonistic activity on PAF
CCc1cc2c(s1)-n1c(C)nnc1CN=C2c1ccccc1Cl [Etizolam, 6-(o-chlorophenyl)-8-ethyl-1-methyl-4H-s-triazolo[3,4-c]thieno[2,3-e][1,4]diazepine] | – | antagonistic activity on PAF (PAF): exhibits antagonistic activity on PAF
Cc1nnc2n1-c1sc(CCc3ccc(C(O)C(C)C)cc3)cc1C(c1ccccc1Cl)=NC2C (stereo not drawn) [Example 2, 4-(2-chlorophenyl)-2-[2-(4-(1-hydroxy-2-methylpropyl)phenyl)ethyl]-6,9-dimethyl-6H-thieno-[3,2-f][1,2,4]triazolo[4,3-a][1,4]diazepine] | 0.01 to 0.03 µg/mL (≈ 0.0198 to 0.0594 µM) | ED50 (PAF-induced lethal shock): 0.01 mg/kg; inhibition at 1 mg/kg [2]: 100%
Cc1nnc2n1-c1sc(CCc3ccc(CC(C)(C)O)cc3)cc1C(c1ccccc1Cl)=NC2C (stereo not drawn) [Example 3, 4-(2-chlorophenyl)-2-[2-(4-(2-hydroxy-2-methylpropyl)phenyl)ethyl]-6,9-dimethyl-6H-thieno[3,2-f][1,2,4]triazolo[4,3-a][1,4]diazepine] | 0.01 to 0.03 µg/mL (≈ 0.0198 to 0.0594 µM) | –
Cc1nnc2n1-c1sc(CCc3ccc(CC(C)CO)cc3)cc1C(c1ccccc1Cl)=NC2C (stereo not drawn) [Example 4, 4-(2-chlorophenyl)-2-[2-(4-(3-hydroxy-2-methylpropyl)phenyl)ethyl]-6,9-dimethyl-6H-thieno[3,2-f][1,2,4]triazolo[4,3-a][1,4]diazepine] | 0.03 to 0.1 µg/mL (≈ 0.0594 to 0.198 µM) | –
Cc1nnc2n1-c1sc(CCc3ccc(C(=O)C(C)(C)O)cc3)cc1C(c1ccccc1Cl)=NC2C (stereo not drawn) [Example 5, 4-(2-chlorophenyl)-2-[2-(4-(2-hydroxy-2-methylpropionyl)phenyl)ethyl]-6,9-dimethyl-6H-thieno[3,2-f][1,2,4]triazolo[4,3-a][1,4]diazepine] | 0.01 to 0.03 µg/mL (≈ 0.0193 to 0.0578 µM) | –
Cc1nnc2n1-c1sc(CCc3ccc(C(O)C(C)(C)O)cc3)cc1C(c1ccccc1Cl)=NC2C (stereo not drawn) [Example 6, 4-(2-chlorophenyl)-2-[2-(4-(1,2-dihydroxy-2-methylpropyl)phenyl)ethyl]-6,9-dimethyl-6H-thieno[3,2-f][1,2,4]triazolo[4,3-a][1,4]diazepine] | 0.03 to 0.1 µg/mL (≈ 0.0576 to 0.192 µM) | –
